Results taken from ChEMBL document CHEMBL1201862, “PubChem BioAssay data set” (2004).
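Briefly, cells in 96-well plates were exposed to five compound concentrations for 48 h, and endpoints were estimated by linear interpolation. GI50 = concentration required for 50% inhibition of growth.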 Calls of active or inactive are those of the source. Cut-off read from the data, not from the text of the source: active = GI50 up to about 1.1 µM and inactive = higher.

Legend:
Assay in all cases: NCI-60 cell line screen, 48 h
[1] = test system: ACHN
[2] = test system: NCI-H460
[3] = test system: HCT-116
[4] = test system: T47D
[5] = test system: COLO 205
[6] = test system: SNB-75
[7] = test system: MCF7
[8] = test system: TK-10
[9] = test system: UACC-62
[10] = test system: NCI-H522
[11] = test system: SK-OV-3
[12] = test system: OVCAR-3
[13] = test system: RPMI-8226
[14] = test system: A549
[15] = test system: EKVX
[16] = test system: DU-145
[17] = test system: HT-29
[18] = test system: SF-295
[19] = test system: IGROV-1

Structure (SMILES)	GI50 [1]	GI50 [2]	GI50 [3]	GI50 [4]	GI50 [5]	GI50 [6]	GI50 [7]	GI50 [8]	GI50 [9]	GI50 [10]	GI50 [11]	GI50 [12]	GI50 [13]	GI50 [14]	GI50 [15]	GI50 [16]	GI50 [17]	GI50 [18]	GI50 [19]
CCOC(=O)OC1(c2ccccc2)CCN(C)CC1	> 100 µM (inactive)	> 100 µM (inactive)	> 100 µM (inactive)	> 100 µM (inactive)	> 100 µM (inactive)	> 100 µM (inactive)	> 100 µM (inactive)	> 100 µM (inactive)	> 100 µM (inactive)	> 100 µM (inactive)	> 100 µM (inactive)	> 100 µM (inactive)	> 100 µM (inactive)	> 100 µM (inactive)	> 100 µM (inactive)	> 100 µM (inactive)	> 100 µM (inactive)	> 100 µM (inactive)	> 100 µM (inactive)
CC1Oc2c(c(=O)oc3ccccc23)[C@@]1(C)CC1C[C@H](C)C(=O)O1 (some centres not stated)	24.4 µM (inactive)	> 10 µM (inactive)	15.1 µM (inactive)	37.4 µM (inactive)	32.1 µM (inactive)	24.7 µM (inactive)	34.4 µM (inactive)	> 100 µM (inactive)	19.1 µM (inactive)	19.5 µM (inactive)	50.5 µM (inactive)	20.9 µM (inactive)	33.3 µM (inactive)	87.7 µM (inactive)	> 100 µM (inactive)	23.3 µM (inactive)	27.1 µM (inactive)	63 µM (inactive)	33.8 µM (inactive)
CC1C(c2ccccc2O)c2cc3c(cc2OC1N1CCCC1)OCO3 (configuration not stated)	32.7 µM (inactive)	16.1 µM (inactive)	19.5 µM (inactive)	34.7 µM (inactive)	23.3 µM (inactive)	22.2 µM (inactive)	26.5 µM (inactive)	39.2 µM (inactive)	35.5 µM (inactive)	23.2 µM (inactive)	88.7 µM (inactive)	20.9 µM (inactive)	24.5 µM (inactive)	31 µM (inactive)	41.9 µM (inactive)	45.1 µM (inactive)	17.1 µM (inactive)	27.2 µM (inactive)	39.3 µM (inactive)
O=C1/C(=C/c2ccncc2)C(n2cccc2)c2c(Br)sc(Br)c21 (configuration not stated)	4.95 µM (inactive)	4.39 µM (inactive)	2.79 µM (inactive)	3.73 µM (inactive)	10.4 µM (inactive)	3.53 µM (inactive)	3.85 µM (inactive)	4.2 µM (inactive)	2.94 µM (inactive)	11.7 µM (inactive)	7.78 µM (inactive)	1.87 µM (inactive)	2.02 µM (inactive)	14.9 µM (inactive)	3.1 µM (inactive)	3.56 µM (inactive)	4.82 µM (inactive)	13.3 µM (inactive)	1.96 µM (inactive)
O=C(CN1CCNCCN(CC(=O)N2CCCCC2)CCNCC1)N1CCCCC1	> 100 µM (inactive)	43 µM (inactive)	42.5 µM (inactive)	> 100 µM (inactive)	> 100 µM (inactive)	> 100 µM (inactive)	> 100 µM (inactive)	> 100 µM (inactive)	> 100 µM (inactive)	40.6 µM (inactive)	> 100 µM (inactive)	> 100 µM (inactive)	> 100 µM (inactive)	50.8 µM (inactive)	> 100 µM (inactive)	> 100 µM (inactive)	18.2 µM (inactive)	> 100 µM (inactive)	33.5 µM (inactive)
CC12CCC(C(Br)(Br)C1=O)C2(C)C (configuration not stated)	0.553 µM (active)	4.05 µM (inactive)	0.128 µM (active)	0.0467 µM (active)	3.01 µM (inactive)	0.711 µM (active)	0.082 µM (active)	2.09 µM (inactive)	0.682 µM (active)	0.0208 µM (active)	1.51 µM (inactive)	0.507 µM (active)	0.0759 µM (active)	4.07 µM (inactive)	0.493 µM (active)	6.08 µM (inactive)	0.228 µM (active)	3.49 µM (inactive)	< 0.0422 µM (active)
CCSc1cc(=O)n(C)c(=O)n1C	> 100 µM (inactive)	> 100 µM (inactive)	> 100 µM (inactive)	> 100 µM (inactive)	> 100 µM (inactive)	42.7 µM (inactive)	> 100 µM (inactive)	> 100 µM (inactive)	> 100 µM (inactive)	> 100 µM (inactive)	> 100 µM (inactive)	> 100 µM (inactive)	> 100 µM (inactive)	> 100 µM (inactive)	> 100 µM (inactive)	> 100 µM (inactive)	> 100 µM (inactive)	> 100 µM (inactive)	–
